Converted amounts (≈) assume the structure as drawn. Like-named read-outs stand apart in the source and are kept apart here.
Tests used:
S. aureus ATCC 33591 = test: MIC assay; assay type: cell-based; conditions: Staphylococcus aureus
Excerpt: (§1) Bacterial strains, growth conditions, and persister isolation. Methicillin-resistant S. aureus strains, MW2 BAA-1707, ATCC 33591, and JE2, methicillin-susceptible S. aureus strains, NCTC 8325, Newman, and ATCC 29213, vancomycin-resistant S. aureus strain, VRS1, Enterococcus faecium E007, vancomycin-resistant E. faecium strains, C68,^7 WB312, and WC196, Klebsiella pneumoniae WGLW2 (BEI Resources, Manassas, Va., USA), Acinetobacter baumannii ATCC 17978, Pseudomonas aeruginosa PA14, and Enterobacter aerogenes ATCC 13048 were used to test antimicrobial activity (Table 1). S. aureus strains were grown in tryptic soy broth (TSB) (BD, Franklin Lakes, N.J., USA), and E. faecium was grown in brain-heart infusion (BHI) broth (BD, Franklin Lakes, N.J., USA) at 37° C. K. pneumoniae, A. baumannii, P. aeruginosa, and E. aerogenes were grown in Luria Bertani (LB) broth (BD, Franklin Lakes, N.J., USA) at 37° C.
(§2) Minimal inhibitory concentration (MIC) assay. The MICS of antibiotics were determined by the standard micro-dilution method recommended by the Clinical and Laboratory Standards Institute. MIC assays were conducted in biological triplicate.

S. aureus JE2 = test: MIC assay; assay type: cell-based; conditions: Staphylococcus aureus
Excerpt: as §1, §2

S. aureus NCTC 8325 = test: MIC assay; assay type: cell-based; conditions: Staphylococcus aureus
Excerpt: as §1, §2

S. aureus Newman = test: MIC assay; assay type: cell-based; conditions: Staphylococcus aureus, read-out: Minimum inhibitory concentration
Excerpt: as §1, §2

S. aureus VRS1 = test: MIC assay; assay type: cell-based; conditions: Staphylococcus aureus
Excerpt: as §1, §2

E. faecium C68 = test: MIC assay; assay type: cell-based, Enterococcus faecium; conditions: Enterococcus faecium
Excerpt: as §1, §2

E. faecium WB312 = test: MIC assay; assay type: cell-based, Enterococcus faecium; conditions: Enterococcus faecium
Excerpt: as §1, §2

E. faecium WC196 = test: MIC assay; assay type: cell-based, Enterococcus faecium; conditions: Enterococcus faecium
Excerpt: as §1, §2

E.faecium E007 = test: MIC assay; assay type: cell-based, Enterococcus faecium; conditions: Enterococcus faecium
Excerpt: as §1, §2

K. pneumoniae WGLW2 = test: MIC assay; assay type: cell-based, Klebsiella pneumoniae; conditions: Klebsiella pneumoniae
Excerpt: as §1, §2

A. baumannii ATCC 17978 = test: MIC assay; assay type: cell-based, Acinetobacter baumannii; conditions: Acinetobacter baumannii
Excerpt: as §1, §2

P. aeruginosa PA14 = test: MIC assay; assay type: cell-based, Pseudomonas aeruginosa; conditions: Pseudomonas aeruginosa
Excerpt: as §1, §2

E. aerogenes ATCC 13048 = test: MIC assay; assay type: cell-based, Enterobacter aerogenes; conditions: Klebsiella aerogenes
Excerpt: as §1, §2

MRSA MW2 [1] = test: Serial passage resistance development; assay type: cell-based, S. aureus; conditions: 25 days, sub-MIC concentrations
Procedure: Serial passage resistance development. […] Briefly, an extended range of concentrations of nTZDpa was generated by two-fold serial dilution with cation-adjusted Mueller Hinton (CaMH) broth (Difco, Detroit, USA) from three different starting concentrations (20, 24, and 32 μg/mL) covering 0.1875 to 32.0 μg/mL, which extended over three rows of the 96-well plate. Three sets of the extended gradient of nTZDpa were created in the 96-well plate to provide triplicates of the experiment. […] MRSA MW2 overnight cultures were adjusted to 1×10^6 CFU/mL in CaMH broth, and 50 μL of the diluted cultures were dispensed into the 96-well plates containing 50 μL of the extended gradient of antibiotics. After incubation for 24 h at 35° C., bacterial growth was determined by measuring optical density at 600 nm using a SpectraMax plate reader (Molecular Devices, Sunnyvale, Calif.), and growth was defined as an optical density reading of ≥0.1. Bacterial cells growing at the highest concentration of the antimicrobial (just below the MIC) were diluted 1:1000 in CaMH broth and then used to inoculate the next day's serial-passage plate. The remaining bacterial cells were stored at −80° C. in CaMH broth with 16% glycerol. This process was repeated for 25 days.

S. aureus (MRSA) MW2 = test: Minimal inhibitory concentration (MIC) assay, micro-dilution; assay type: cell-based; conditions: Staphylococcus aureus, MRSA, read-out: Minimum inhibitory concentration
Excerpt: as §1, §2

S. aureus ATCC 29213 = test: MIC assay; assay type: cell-based; conditions: Staphylococcus aureus, ATCC29213, read-out: Minimum inhibitory concentration
Excerpt: as §1, §2

[2] = system: exponential-phase MRSA MW2; test: Killing kinetics assay; assay type: cell-based, S. aureus; conditions: 32 μg/ml (32× MIC), after 4 hours
Procedure: Killing kinetics assay. An MRSA MW2 overnight culture was diluted 1:10,000 in 25 mL TSB (˜10^5 CFU/mL) in a 250 mL flask and incubated at 37° C. with shaking at 200 rpm for 4.5 h until it reached exponential-phase (˜2×10^7 CFU/mL). 1 mL of the exponential phase cell culture was mixed with 1 mL of pre-warmed TSB containing twice the desired concentrations of antibiotics in a 96-well assay block (Corning Costar 3960). The assay block was incubated at 37° C. with shaking at 200 rpm. At every hour, 400 μl aliquots were taken, washed once with phosphate buffered saline (PBS), serially diluted and spot-plated onto tryptic soy agar (TSA, BD) plates. After incubation at 37° C. for overnight, colonies were counted to enumerate the number of cells. These experiments were conducted in biological triplicate.

MRSA MW2 [3] = test: Antibiotic synergy test (checkerboard); assay type: cell-based, S. aureus; conditions: nTZDpa in combination with the named antibiotic, synergy if FICI ≤ 0.5
Procedure: Antibiotic synergy test. Antibiotic synergism was evaluated by the checkerboard method. Briefly, 2-fold serial dilutions of nTZDpa were combined with 2-fold serial dilutions of each other antibiotic, which created an 8×8 matrix in a 96-well microtiter plate. The fractional inhibitory concentration index (FICI) was calculated as follows: FICI=MIC of compound A in combination/MIC of compound A alone+MIC of compound B in combination/MIC of compound B alone. The interaction between two compounds was defined, as follows: synergy if FICI≤0.5, no interaction if 0.5<FICI≤4, and antagonism if FICI>4.

MRSA MW2 [4] = test: Deep-seated mouse thigh infection model; assay type: in vivo; conditions: vancomycin 25 mg/kg i.p., gentamicin 30 mg/kg s.c., nTZDpa 50 mg/kg i.p., 5 days
Procedure: Deep-seated mouse thigh infection model. In vivo efficacy of nTZDpa alone or in combination with gentamicin against MRSA persisters was evaluated by a previously described neutropenic mouse thigh infection model with modifications. Six-week-old female CD-I mice (20-25 g, Charles River Laboratories, Wilmington, Mass., USA) were obtained from Charles River Laboratories (Wilmington, Mass., USA). The CD-I mice were rendered neutropenic by administering 150 mg/kg and 100 mg/kg of cyclophosphamide intraperitoneally (i.p.) at 4 days and 1 day before infection, respectively. On the day of infection, overnight culture of MRSA MVV2 was washed 3-time with sterile saline and diluted to 10^7 CFU/ml in the saline. 50 μl of the diluted culture (5×10^5 CFU per mouse) was injected to the right thigh of each mouse. nTZDpa was dissolved in Kolliphor EL (Sigma-Aldrich, St Louis, Mo., USA)/ethanol 1:1 and then diluted 1:10 in saline to a final concentration of 50 mg/kg. At 24 h post-infection, groups of mice (n=10) were treated with 30 mg/kg gentamicin subcutaneously (s.c.) every 12 h, 25 mg/kg vancomycin i.p. every 24 h, 50 mg/kg nTZPpa i.p. every 24 h, or the combination of 50 mg/kg nTZDpa i.p. every 24 h and 30 mg/kg gentamicin s.c. every 12 h for 5 days. Control mice were injected with 250 μl of 10% Kolliphor EL/ethanol in saline i.p. every 24 h for 5 days. Mice were euthanized at 96 h post-infection. Blood was collected by cardiac puncture, and the infected thighs were aseptically excised, weighed, and stored at 4° C. until homogenization. To evaluate hepatic and renal toxicities, the levels of alanine aminotransferase and blood urea nitrogen were analyzed with commercially available kits, following the manufacturer's protocol (Pointe Scientific, Canton, Mich., USA). Thighs were homogenized in PBS, serially diluted with PBS, and spot-plated on TSA plates. […] Statistical significance among each group was analyzed by one-way ANOVA with post-hoc Tukey test using PASW Statistics 18 (SPSS Inc. Chicago, Ill., USA).

Structure (SMILES): O=C(O)c1cn(C2CC2)c2cc(N3CCNCC3)c(F)cc2c1=O [Ciprofloxacin, ciprofloxacin]
- MIC (S. aureus ATCC 33591; ATCC33591, S. aureus ATCC 33591, read-out: Minimum inhibitory concentration): 0.25 µg/mL (≈ 0.754 µM)
- MIC (S. aureus JE2; S. aureus JE2, read-out: Minimum inhibitory concentration): 16 µg/mL (≈ 48.3 µM)
- MIC (S. aureus NCTC 8325; NCTC8325, S. aureus NCTC 8325, read-out: Minimum inhibitory concentration): 0.125 µg/mL (≈ 0.377 µM)
- MIC (S. aureus Newman; S. aureus Newman): 0.25 µg/mL (≈ 0.754 µM)
- MIC (S. aureus VRS1; S. aureus VRS1, read-out: Minimum inhibitory concentration): 64 µg/mL (≈ 193 µM)
- MIC (E. faecium C68; E. faecium C68, read-out: Minimum inhibitory concentration): > 64 µg/mL
- MIC (E. faecium WB312; E. faecium WB312, read-out: Minimum inhibitory concentration): 32 µg/mL (≈ 96.6 µM)
- MIC (E. faecium WC196; E. faecium WC196, read-out: Minimum inhibitory concentration): 1 µg/mL (≈ 3.02 µM)
- MIC (E.faecium E007; E.faecium E007, read-out: Minimum inhibitory concentration): > 64 µg/mL
- MIC (K. pneumoniae WGLW2; K. pneumoniae WGLW2, read-out: Minimum inhibitory concentration): 0.031 µg/mL (≈ 0.0936 µM)
- MIC (A. baumannii ATCC 17978; ATCC17978, A. baumannii ATCC 17978, read-out: Minimum inhibitory concentration): 0.25 µg/mL (≈ 0.754 µM)
- MIC (P. aeruginosa PA14; P. aeruginosa PA14, read-out: Minimum inhibitory concentration): 0.063 µg/mL (≈ 0.19 µM)
- MIC (E. aerogenes ATCC 13048; ATCC13048, E. aerogenes ATCC 13048, read-out: Minimum inhibitory concentration): 0.031 µg/mL (≈ 0.0936 µM)
- increase of MIC over wild-type after serial passage (MRSA MW2 [1]): 32 fold

Structure (SMILES): CN[C@H](CC(C)C)C(=O)N[C@H]1C(=O)N[C@@H](CC(N)=O)C(=O)N[C@H]2C(=O)N[C@H]3C(=O)N[C@H](C(=O)N[C@H](C(=O)O)c4cc(O)cc(O)c4-c4cc3ccc4O)[C@H](O)c3ccc(c(Cl)c3)Oc3cc2cc(c3O[C@@H]2O[C@H](CO)[C@@H](O)[C@H](O)[C@H]2O[C@H]2C[C@](C)(N)[C@H](O)[C@H](C)O2)Oc2ccc(cc2Cl)[C@H]1O [Vancomycin, vancomycin]
- MIC (S. aureus (MRSA) MW2): 1 µg/mL (≈ 0.69 µM)
- MIC (S. aureus ATCC 29213): 1 µg/mL (≈ 0.69 µM)
- MIC (S. aureus ATCC 33591; ATCC33591, read-out: Minimum inhibitory concentration): 2 µg/mL (≈ 1.38 µM)
- MIC (S. aureus JE2; JE2, read-out: Minimum inhibitory concentration): 1 µg/mL (≈ 0.69 µM)
- MIC (S. aureus NCTC 8325; NCTC8325, read-out: Minimum inhibitory concentration): 1 µg/mL (≈ 0.69 µM)
- MIC (S. aureus Newman; NEWMAN): 2 µg/mL (≈ 1.38 µM)
- MIC (S. aureus VRS1; VRS1, read-out: Minimum inhibitory concentration): > 64 µg/mL
- MIC (E. faecium C68; C68, read-out: Minimum inhibitory concentration): 64 µg/mL (≈ 44.2 µM)
- MIC (E. faecium WB312; WB312, read-out: Minimum inhibitory concentration): 16 µg/mL (≈ 11 µM)
- MIC (E. faecium WC196; WC196, read-out: Minimum inhibitory concentration): 64 µg/mL (≈ 44.2 µM)
- MIC (E.faecium E007; E007, read-out: Minimum inhibitory concentration): 1 µg/mL (≈ 0.69 µM)
- MIC (K. pneumoniae WGLW2; WGLW2, read-out: Minimum inhibitory concentration): > 64 µg/mL
- MIC (A. baumannii ATCC 17978; ATCC17978, read-out: Minimum inhibitory concentration): > 64 µg/mL
- MIC (P. aeruginosa PA14; PA14, read-out: Minimum inhibitory concentration): > 64 µg/mL
- MIC (E. aerogenes ATCC 13048; ATCC13048, read-out: Minimum inhibitory concentration): > 64 µg/mL
- decrease in viability [2]: 2 log
- FICI (fractional inhibitory concentration index) (MRSA MW2 [3]): 1
- MRSA CFUs / viability of persisters in thigh, single agent (MRSA MW2 [4]): neither vancomycin nor gentamicin reduced MRSA CFUs

Source: patent US11690824B2, “Antibacterial compounds” (THE GENERAL HOSPITAL CORPORATION, priority 2018, dated 2023)
